Legend:
Assay in all cases: drug sensitivity score (DSS), CellTox Green (DSS (AUC-based score)); higher = stronger drug effect (viability inhibition or cytotoxicity); extreme values may be limits of the assay
Details in all cases: incubation time: 72 h
BT-474 = tested on: BT-474
How it was run: (§1)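 Each compound occupied 5 concentrations in 10-fold steps over its own 10,000-fold range in 384-well plates, into which breast cancer cell lines were seeded as 20 µl suspension. Following 72 h of incubation, CellTox Green fluorescence (485/520 nm) was measured, and CellTiter-Glo luminescence was measured after 10 min at room temperature. Plates were individually normalised to 0.1 % DMSO and a positive kill control. From the area under the fitted dose-response curve, a drug sensitivity score was calculated.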

MDA-MB-231 = tested on: MDA-MB-231
How it was run: as §1

CAL-51 = tested on: CAL-51
How it was run: as §1

BT-549 = tested on: BT-549
How it was run: as §1

MDA-MB-453 = tested on: MDA-MB-453
How it was run: as §1

HCC1937 = tested on: HCC1937
How it was run: as §1

HCC1599 = tested on: HCC1599
How it was run: as §1

MDA-MB-436 = tested on: MDA-MB-436
How it was run: as §1

DU-4475 = tested on: DU-4475
How it was run: as §1

CAL-85-1 = tested on: CAL-85-1
How it was run: as §1

CAL-148 = tested on: CAL-148
How it was run: as §1

CAL-120 = tested on: CAL-120
How it was run: as §1

MDA-MB-468 = tested on: MDA-MB-468
How it was run: as §1

MCF-10A = tested on: MCF-10A
How it was run: as §1

MFM-223 = tested on: MFM-223
How it was run: as §1

HDQ-P1 = tested on: HDQ-P1
How it was run: as §1

Hs578T = tested on: Hs578T
How it was run: as §1

HCC1143 = tested on: HCC1143
How it was run: as §1

SMILES	drug sensitivity score (BT-474)	drug sensitivity score (MDA-MB-231)	drug sensitivity score (CAL-51)	drug sensitivity score (BT-549)	drug sensitivity score (MDA-MB-453)	drug sensitivity score (HCC1937)	drug sensitivity score (HCC1599)	drug sensitivity score (MDA-MB-436)	drug sensitivity score (DU-4475)	drug sensitivity score (CAL-85-1)	drug sensitivity score (CAL-148)	drug sensitivity score (CAL-120)	drug sensitivity score (MDA-MB-468)	drug sensitivity score (MCF-10A)	drug sensitivity score (MFM-223)	drug sensitivity score (HDQ-P1)	drug sensitivity score (Hs578T)	drug sensitivity score (HCC1143)
N[C@@H](Cc1ccc(N(CCCl)CCCl)cc1)C(=O)O [Melphalan]	18.1	23.9	21.7	13.4	16.9	15.4	11.8	8.42	11.5	18.1	18.5	9.72	19.7	19.3	16.5	18.4	12.4	7.18
CO[C@H]1C[C@@H]2CC[C@@H](C)[C@@](O)(O2)C(=O)C(=O)N2CCCC[C@H]2C(=O)O[C@H]([C@H](C)C[C@@H]2CC[C@@H](O)[C@H](OC)C2)CC(=O)[C@H](C)/C=C(\C)[C@@H](O)[C@@H](OC)C(=O)[C@H](C)C[C@H](C)/C=C/C=C/C=C/1C [Sirolimus]	0	0	0	0	0	1.4	0	0	0	0	0	0	0	0	0	0	0	0
CC[C@@H]1C(=O)N(C)c2cnc(Nc3ccc(C(=O)N[C@H]4CC[C@H](N5CCN(CC6CC6)CC5)CC4)cc3OC)nc2N1C(C)C [Volasertib]	0	3.33	14.5	3.98	0	17.3	0	0	0	8.26	0	0	0	19.4	14.5	7.16	10.7	14.8
Cn1nnc2c(C(N)=O)ncn2c1=O [Temozolomide]	0	0	0	0	0	0	0	0	0	0	0	0	0	0	0	0	0	0
COc1cc2c(cc1-c1c(C)noc1C)ncc1[nH]c(=O)n([C@H](C)c3ccccn3)c12 [I-BET151]	0	1.07	4.63	0	0	0	0	1.57	0.559	5.11	0	0	5.63	2.02	0	5.77	0	0
COc1cc(Nc2ncc(F)c(Nc3ccc4c(n3)N(COP(=O)(O)O)C(=O)C(C)(C)O4)n2)cc(OC)c1OC [Fostamatinib]	0	11.1	3.3	11.4	0	0	0	0	0	6.03	0	0	–	0	0	0	3.65	0
NC1(c2ccc(-c3nc4ccn5c(=O)[nH]nc5c4cc3-c3ccccc3)cc2)CCC1 [MK-2206]	0	0	0	0	0	0	0	0	0	0	3.64	0	0	0	0	0	0	0
O=C(c1cc(Cc2n[nH]c(=O)c3ccccc23)ccc1F)N1CCN(C(=O)C2CC2)CC1 [Olaparib]	0	1.54	3.38	0	0	0	0	8.45	0	0	0	0	0	0	0	–	0	0
CC/C(=C(\c1ccccc1)c1ccc(OCCN(C)C)cc1)c1ccccc1 [Tamoxifen]	4.12	3.47	0	0	1.55	17.1	0	1.29	0	1.12	0	0	3.42	0	0	0	0	0
CCN(CC)CCOc1ccc(C(=C(Cl)c2ccccc2)c2ccccc2)cc1 [Clomifene]	5.14	8.18	0	0	2.83	8.71	1.4	0	1.43	2.27	0	1.48	0	3.53	9.19	–	7.35	0
O=NN(CCCl)C(=O)NC1CCCCC1 [Lomustine]	0	–	0	0	0	0	0	0	0	0	0	0	0	0	0	0	0	0
NC(=O)c1cccc2cn(-c3ccc([C@@H]4CCCNC4)cc3)nc12 [MK-4827]	0	0	3.35	0	0	–	0	0	0	2.02	0	0	0	0	0	0	0	0

Reference: the supplement of paper PMC4862054
